Measurements reported in patent US12473289B2, “Heterocyclic compounds as delta-5 desaturase inhibitors and methods of use” (Amgen Inc., priority 2019, dated 2025).
pIC50: −log10 of the molar value.

biological target: Delta-5-Desaturase (D5D) (Homo sapiens (Human), UniProt O60427); experiment: In vitro measurement of Delta-5-Desaturase inhibitory activity using DGLA-CoA and Arachidonyl-CoA mass spectrometric assays; format: biochemical; conditions: membrane preparations of D5D-overexpressing HEK293 6E cells; averaged over at least two independent runs
Sequence (O60427 whole entry, species assumed): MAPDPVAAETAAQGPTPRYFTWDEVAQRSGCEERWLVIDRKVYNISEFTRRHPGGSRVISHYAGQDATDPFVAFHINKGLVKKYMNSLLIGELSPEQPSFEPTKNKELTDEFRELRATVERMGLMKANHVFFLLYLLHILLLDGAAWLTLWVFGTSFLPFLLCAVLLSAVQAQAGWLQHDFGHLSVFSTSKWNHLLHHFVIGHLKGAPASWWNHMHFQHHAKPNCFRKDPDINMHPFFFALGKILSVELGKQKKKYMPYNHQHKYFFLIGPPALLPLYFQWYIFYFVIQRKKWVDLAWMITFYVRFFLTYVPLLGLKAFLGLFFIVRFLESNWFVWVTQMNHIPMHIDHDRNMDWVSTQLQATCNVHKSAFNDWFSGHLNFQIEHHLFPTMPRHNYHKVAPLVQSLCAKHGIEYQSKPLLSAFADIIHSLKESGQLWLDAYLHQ
Method in brief: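 Membranes from D5D-overexpressing HEK293 6E cells (10 μg/mL final) in Tris pH 7.5 with MgCl2, octyl glucoside and TCEP were mixed 1:1 with substrate solution (0.01 mM DGLA, 0.25 mM NADH, 0.25 mM ATP, 0.05 mM CoA) for 1 h at ambient temperature. RapidFire SPE-MS/MS MRM; IC50 by 4-parameter fit, ≥2 runs.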

| Compound | pIC50 |
| --- | --- |
| CNC(=O)c1ccn2c(=O)c(-c3cnn(CC(F)(F)C(F)(F)F)c3)c(C(F)(F)F)nc2c1 [Example 12-5, N-methyl-4-oxo-3-(1-(2,2,3,3,3-pentafluoropropyl)-1H-pyrazol-4-yl)-2-(trifluoromethyl)-4H-pyrido[1,2-a]pyrimidine-8-carboxamide] | 6.50 |
| COc1cc2nc(C(F)(F)F)c(-c3cnn(CC(F)(F)C(F)(F)F)c3)c(=O)n2cc1Cl [Example 1-45, 7-chloro-8-methoxy-3-[1-(2,2,3,3,3-pentafluoropropyl)-1H-pyrazol-4-yl]-2-(trifluoromethyl)-4H-pyrido[1,2-a]pyrimidin-4-one] | 7.06 |
| Cc1cnn2c(=O)c(-c3cnn(CC(F)(F)C(F)(F)F)c3)c(C(F)(F)F)nc2c1 [Example 39-40, 8-methyl-3-[1-(2,2,3,3,3-pentafluoropropyl)-1H-pyrazol-4-yl]-2-(trifluoromethyl)-4H-pyrimido[1,2-b]pyridazin-4-one] | 7.17 |
| COc1ccn2c(=O)c(-c3cc(CC(F)(F)C(F)(F)F)no3)c(C(F)(F)F)nc2c1 [Example 60, 8-Methoxy-3-[3-(2,2,3,3,3-pentafluoropropyl)-1,2-oxazol-5-yl]-2-(trifluoromethyl)-4H-pyrido[1,2-a]pyrimidin-4-one] | 7.13 |
| Cc1ccc2nc(C(F)(F)F)c(-c3cnn(CC(F)(F)C(F)(F)F)c3)c(=O)n2n1 [Example 39-32, 7-methyl-3-[1-(2,2,3,3,3-pentafluoropropyl)-1H-pyrazol-4-yl]-2-(trifluoromethyl)-4H-pyrimido[1,2-b]pyridazin-4-one] | 6.81 |
| COC(=O)c1ccc2nc(C(F)(F)F)c(-c3cnn(CC(F)(F)C(F)(F)F)c3)c(=O)n2c1 [Example 39-16, methyl 4-oxo-3-[1-(2,2,3,3,3-pentafluoropropyl)-1H-pyrazol-4-yl]-2-(trifluoromethyl)-4H-pyrido[1,2-a]pyrimidine-7-carboxylate] | 4.45 |
| O=c1c(-c2cnc(OCC(F)(F)F)nc2)c(C(F)(F)F)nc2ccc(C3CC3)cn12 [Example 39-20, 7-cyclopropyl-3-[2-(2,2,2-trifluoroethoxy)pyrimidin-5-yl]-2-(trifluoromethyl)-4H-pyrido[1,2-a]pyrimidin-4-one] | < 4.17 |
| Cc1cnn2c(=O)c(-c3cnn(CCC(F)(F)F)c3)c(C(F)(F)F)nc2c1 [Example 39-44, 8-methyl-2-(trifluoromethyl)-3-[1-(3,3,3-trifluoropropyl)-1H-pyrazol-4-yl]-4H-pyrimido[1,2-b)pyridazin-4-one] | 6.62 |
| O=c1c(-c2cnn(CC(F)(F)C(F)(F)F)c2)c(C(F)(F)F)nc2cc(OCF)cnn12 [Example 47, 8-(Fluoromethoxy)-3-[1-(2,2,3,3,3-pentafluoropropyl)-1H-pyrazol-4-yl]-2-(trifluoromethyl)-4H-pyrimido[1,2-b]pyridazin-4-one] | 7.47 |
| O=c1c(-c2cnc(OCC(F)(F)F)nc2)c(C(F)(F)F)nc2n1CCOC2 [Example 39-39, 3-[2-(2,2,2-trifluoroethoxy)pyrimidin-5-yl]-2-(trifluoromethyl)-4H,6H,7H,9H-pyrimido[2,1-c][1,4]oxazin-4-one] | < 4.17 |
| CN(C)C(=O)c1ccn2c(=O)c(-c3ccc(OCC(F)(F)F)cc3)c(C(F)(F)F)nc2c1 [Example 12-3, N,N-dimethyl-4-oxo-3-(4-(2,2,2-trifluoroethoxy)phenyl)-2-(trifluoromethyl)-4H-pyrido[1,2-a]pyrimidine-8-carboxamide] | 5.60 |
| O=c1ccn2c(=O)c(-c3cnn(CC(F)(F)C(F)(F)F)c3)c(C(F)(F)F)nc2n1CF [Example 68, 1-(Fluoromethyl)-7-[1-(2,2,3,3,3-pentafluoropropyl)-1H-pyrazol-4-yl]-8-(trifluoromethyl)-1H,2H,6H-[1,3]diazino[1,2-a]pyrimidine-2,6-dione] | 7.09 |
| CN1CCn2c(nc(C(F)(F)F)c(-c3cnn(CC(F)(F)C(F)(F)F)c3)c2=O)C1 [Example 64, 8-Methyl-3-[1-(2,2,3,3,3-pentafluoropropyl)-1H-pyrazol-4-yl]-2-(trifluoromethyl)-4H,6H,7H,8H,9H-pyrimido[1,2-a]pyrazin-4-one] | 6.27 |
| O=c1c(-c2cnn(-c3ccc(F)cc3)c2)c(C(F)(F)F)nc2ccccn12 [Example 1-46, 3-(1-(4-fluorophenyl)-1H-pyrazol-4-yl)-2-(trifluoromethyl)-4H-pyrido[1,2-a]pyrimidin-4-one] | 7.44 |
| C[S@+]([O-])c1ccn2c(=O)c(-c3ccc(OCC(F)(F)F)cc3)c(C(F)(F)F)nc2c1 [Example 15-3, 8-((S)-methylsulfinyl)-3-(4-(2,2,2-trifluoroethoxy)phenyl)-2-(trifluoromethyl)-4H-pyrido[1,2-a]pyrimidin-4-one] | 6.63 |
| O=c1c(-c2ccc(OCC(F)(F)F)nc2)c(C(F)(F)F)nc2ccccn12 [Example 20, 3-(6-(2,2,2-Trifluoroethoxy)-3-pyridinyl)-2-(trifluoromethyl)-4H-pyrido[1,2-a]pyrimidin-4-one] | 6.96 |
| COc1cn2c(=O)c(-c3cnn(CC(F)(F)C(F)(F)F)c3)c(C(F)(F)F)nc2cn1 [Example 39-37, 7-methoxy-3-[1-(2,2,3,3,3-pentafluoropropyl)-1H-pyrazol-4-yl]-2-(trifluoromethyl)-4H-pyrazino[1,2-a]pyrimidin-4-one] | 7.21 |
| CSCOc1ccn2c(=O)c(-c3ccc(OCC(F)(F)F)cc3)c(C(F)(F)F)nc2c1 [Example 17-1, 8-((Methylsulfanyl)methoxy)-3-(4-(2,2,2-trifluoroethoxy)phenyl)-2-(trifluoromethyl)-4H-pyrido[1,2-a]pyrimidin-4-one] | 6.50 |
| C[C@@H](O)c1ccn2c(=O)c(-c3cnn(CC(F)(F)C(F)(F)F)c3)c(C(F)(F)F)nc2c1 [Example 31-1, 8-((1R)-1-hydroxyethyl)-3-(1-(2,2,3,3,3-pentafluoropropyl)-1H-pyrazol-4-yl)-2-(trifluoromethyl)-4H-pyrido[1,2-a]pyrimidin-4-one] | 6.79 |
| Cc1nccn2c(=O)c(-c3cnn(CC(F)(F)C(F)(F)F)c3)c(C(F)(F)F)nc12 [Example 39-41, 9-methyl-3-[1-(2,2,3,3,3-pentafluoropropyl)-1H-pyrazol-4-yl]-2-(trifluoromethyl)-4H-pyrazino[1,2-a]pyrimidin-4-one] | 7.19 |
| COc1ccn2c(=O)c(-c3cnn(C4CC4)c3)c(C(F)(F)F)nc2c1 [Example 49, 3-(1-Cyclopropyl-1H-pyrazol-4-yl)-8-methoxy-2-(trifluoromethyl)-4H-pyrido[1,2-a]pyrimidin-4-one] | 6.98 |

These reach a higher pIC50. Values come first.

| pIC50 | Compound |
| --- | --- |
| 7.63 | COc1ccn2c(=O)c(-c3ccc(O[C@H](C)C#N)cc3)c(C(F)(F)F)nc2n1 [Example 8-6, (2R)-2-(4-(8-methoxy-4-oxo-2-(trifluoromethyl)-4H-pyrimido[1,2-a]pyrimidin-3-yl)phenoxy)propanenitrile] |
| 7.67 | COc1ccn2c(=O)c(-c3cnc(OCC(F)(F)F)s3)c(C(F)(F)F)nc2c1 [Example 56, 8-Methoxy-3-[2-(2,2,2-trifluoroethoxy)-1,3-thiazol-5-yl]-2-(trifluoromethyl)-4H-pyrido[1,2-a]pyrimidin-4-one] |
| 7.73 | COc1ccn2c(=O)c(-c3ccc(OCC#N)cc3)c(C(F)(F)F)nc2n1 [Example 1-40, (4-(8-methoxy-4-oxo-2-(trifluoromethyl)-4H-pyrimido[1,2-a]pyrimidin-3-yl)phenoxy)acetonitrile] |
| 7.78 | O=c1c(-c2cnn(CC(F)(F)C(F)(F)F)c2)c(C(F)(F)F)nc2cc(OCCl)ccn12 [Example 46, 8-(Chloromethoxy)-3-[1-(2,2,3,3,3-pentafluoropropyl)-1H-pyrazol-4-yl]-2-(trifluoromethyl)-4H-pyrido[1,2-a]pyrimidin-4-one] |
| 7.79 | COc1ccn2c(=O)c(-c3ccc(OC(C)C#N)cc3)c(C(F)(F)F)nc2c1 (stereo not drawn) [Example 8-4, 2-(4-(8-methoxy-4-oxo-2-(trifluoromethyl)-4H-pyrido[1,2-a]pyrimidin-3-yl)phenoxy)propanenitrile] |
| 7.86 | COc1ccn2c(=O)c(-c3cnn(-c4ccc(F)cc4)c3)c(C(F)(F)F)nc2c1 [Example 1-17, 3-(1-(4-fluorophenyl)-1H-pyrazol-4-yl)-8-methoxy-2-(trifluoromethyl)-4H-pyrido[1,2-a]pyrimidin-4-one] |
| 8.16 | COc1cnn2c(=O)c(-c3cnn(CCC(F)(F)F)c3)c(C(F)(F)F)nc2c1 [Example 39-11, 8-methoxy-2-(trifluoromethyl)-3-[1-(3,3,3-trifluoropropyl)-1H-pyrazol-4-yl]-4H-pyrimido[1,2-b]pyridazin-4-one] |
| 8.25 | [2H]C([2H])([2H])Oc1ccn2c(=O)c(-c3ccc(OCC(F)F)cc3)c(C(F)(F)F)nc2c1 [Example 1-52, 3-(4-(2,2-difluoroethoxy)phenyl)-8-(methyloxy-d3)-2-(trifluoromethyl)-4H-pyrido[1,2-a]pyrimidin-4-one] |
| 8.39 | O=c1c(-c2ccc(OCC(F)(F)F)cc2)c(C(F)(F)F)nc2cc(Cl)ccn12 [Example 2-7, 8-chloro-3-(4-(2,2,2-trifluoroethoxy)phenyl)-2-(trifluoromethyl)-4H-pyrido[1,2-a]pyrimidin-4-one] |
| 8.57 | Cc1ccn2c(=O)c(-c3ccc(OCC(F)(F)F)cc3)c(C(F)(F)F)nc2c1 [Example 1-78, 8-methyl-3-(4-(2,2,2-trifluoroethoxy)phenyl)-2-(trifluoromethyl)-4H-pyrido[1,2-a]pyrimidin-4-one] |
| 8.62 | O=c1c(-c2cnn(CCC(F)(F)F)c2)c(C(F)(F)F)nc2ccc(Cl)cn12 [Example 39-17, 7-chloro-2-(trifluoromethyl)-3-[1-(3,3,3-trifluoropropyl)-1H-pyrazol-4-yl]-4H-pyrido[1,2-a]pyrimidin-4-one] |
| 8.92 | Cc1cc2nc(C(F)(F)F)c(-c3cnn(CC(F)(F)C(F)(F)F)c3)c(=O)n2cc1Cl [Example 41-1, 7-Chloro-8-methyl-3-[1-(2,2,3,3,3-pentafluoropropyl)-1H-pyrazol-4-yl]-2-(trifluoromethyl)-4H-pyrido[1,2-a]pyrimidin-4-one] |
